The values that follow come from patent US9663486B2, “Selectively substituted quinoline compounds” (EISAI R&D MANAGEMENT CO., LTD., priority 2013, dated 2017).

Test [1] deals with T1, mouse TLR7 (Mus musculus, UniProt P58681).
T1 construct: tissue Jackson Labs; host or cells: live female BALB/c mice
T1 sequence (P58681 27-1050): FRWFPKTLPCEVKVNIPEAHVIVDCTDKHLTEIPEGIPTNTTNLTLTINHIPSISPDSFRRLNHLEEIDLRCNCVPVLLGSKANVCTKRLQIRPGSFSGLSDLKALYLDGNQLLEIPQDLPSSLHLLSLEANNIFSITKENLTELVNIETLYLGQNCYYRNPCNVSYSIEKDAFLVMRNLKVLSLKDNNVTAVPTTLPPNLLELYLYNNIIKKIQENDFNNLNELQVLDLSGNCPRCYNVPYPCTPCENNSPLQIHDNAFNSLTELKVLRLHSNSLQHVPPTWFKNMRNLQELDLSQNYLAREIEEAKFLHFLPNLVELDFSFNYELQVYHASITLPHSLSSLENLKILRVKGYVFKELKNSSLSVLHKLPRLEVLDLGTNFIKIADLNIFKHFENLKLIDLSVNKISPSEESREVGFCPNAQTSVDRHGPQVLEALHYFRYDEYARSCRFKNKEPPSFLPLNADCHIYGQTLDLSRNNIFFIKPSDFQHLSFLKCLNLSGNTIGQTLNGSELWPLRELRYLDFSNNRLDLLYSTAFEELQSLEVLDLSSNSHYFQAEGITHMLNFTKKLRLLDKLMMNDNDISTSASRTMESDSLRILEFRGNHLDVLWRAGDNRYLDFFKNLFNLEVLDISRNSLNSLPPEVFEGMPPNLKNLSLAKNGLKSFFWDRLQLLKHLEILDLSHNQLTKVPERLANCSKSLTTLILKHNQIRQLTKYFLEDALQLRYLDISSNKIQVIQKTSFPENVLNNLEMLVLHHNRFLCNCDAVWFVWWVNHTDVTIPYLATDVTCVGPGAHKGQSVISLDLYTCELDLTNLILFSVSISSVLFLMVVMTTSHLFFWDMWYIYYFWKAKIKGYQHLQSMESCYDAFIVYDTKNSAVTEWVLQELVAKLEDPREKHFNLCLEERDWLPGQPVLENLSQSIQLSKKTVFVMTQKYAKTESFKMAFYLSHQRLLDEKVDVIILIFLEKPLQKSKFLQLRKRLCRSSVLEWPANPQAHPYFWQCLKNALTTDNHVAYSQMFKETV
As to the kind of experiment: Short-term in vivo (STIV) assay, plasma IL-6 after R848. The following applies: plasma IL-6 after R848 s.c., BALB/c mice. On the procedure:
To assess compound potency in vivo against mouse TLR7, a short-term in vivo (STIV) assay was utilized. Briefly, mice were orally dosed with compounds and at various time points afterwards were injected subcutaneously with agonist R848 to stimulate TLR7. The plasma IL-6 level following R848 stimulation was then measured by ELISA to assess compound potency and duration-of-action. […] Therefore, the activity of compounds in the STIV assay can be confidently attributed to their modulation of the TLR7 pathway.
Six to eight week old female BALB/c mice (Jackson Labs, Bar Harbor, Me.) were dosed by oral gavage in 200 ul volume with antagonist compounds formulated in 0.5% aqueous methyl-cellulose (Sigma, St. Louis, Mo.). At various time points afterwards, mice were injected subcutaneously (s.c.) in 100 ul volume with 15 ug R848 (Resiquimod; GLSynthesis, Worcester, Mass.) to stimulate TLR7. Blood plasma was collected by cardiac puncture, and levels of IL-6 at 1.5 hours after TLR7 stimulation were then assessed by standard ELISA procedure according to the manufacturer's recommended protocol (R&D Systems).

The subject of test [2] is Human TLR7/8. As to the kind of experiment: Human PBMC cell-based assay, TLR7/8 (RNA-Ig), cytokine ELISA. As to conditions: PBMC assay data summary; ligand and analyte not given; read-out: Human PBMCs IC50. On the procedure: Human peripheral blood mononuclear cells (PBMC) were isolated from freshly-drawn heparinized (10 USP units/ml, Hospira, Lakeforest, Ill.) healthy donor whole blood by density gradient (Histopaque® 1077, Sigma, Inc., St. Louis, Mo.). Briefly, 25 ml blood was diluted with 15 ml PBS (without Ca^2+, Mg^2+) in a 50 ml conical tube, and 12 ml Histopaque was underlaid using a spinal needle. Tubes were centrifuged for 45 minutes at 1200 rpm (350×g), and PBMC were collected from the buffy coat. Cells were then washed twice in PBS, and red blood cells were lysed by suspension in 5 ml ammonium chloride solution (1× Red Blood Cell Lysis Buffer, eBioscience) for 5 minutes at room temperature. After a final wash in PBS, PBMC were resuspended at a final concentration of 2×10^6/ml in RPMI-1640 media with L-glutamine (Invitrogen) and supplemented with 25 mM HEPES (Mediatech, Inc, Manassas Va.), 10% fetal bovine serum (HyClone, Logan, Utah), and Penicillin-Streptomycin-Glutamine (Mediatech) and plated at 100 ul/well (2×10^5 cells/well) in tissue culture treated 96-well plates (Falcon).
Antagonist compounds solubilized and serial diluted in 100% DMSO were added in triplicate to cells to yield a final concentration of 0.1% DMSO (v/v). Hydroxychloroquine (Acros Organics) solubilized and serial diluted in PBS was added in triplicate to cells. PBMC were incubated with antagonist compounds or HCQ for 30 minutes at 37° C., 5% CO2 before adding various TLR agonist reagents in 100 ul complete media per well as follows (final concentrations indicated): R848 (Resiquimod; GLSynthesis, Worcester, Mass.) at 1 uM for TLR7 and TLR8, Pam3CSK4 (InvivoGen) at 50 ng/ml for TLR1/2, LPS (Sigma) at 10 ng/ml for TLR4, and CpG-2216 (InvivoGen) at 5 ug/ml for TLR9. […] The resulting “RNA-Ig” stimulus was incubated at room temperature for 15-30 minutes before adding to cells. PBMC were incubated with the various TLR agonists for 20 hours at 37° C., 5% CO2. Cell culture supernatants were collected, and levels of various human cytokines were assessed as indicated by standard ELISA procedure according to the manufacturer's recommended protocol (BD Biosciences, Inc., San Diego, Calif.).

For test [3], the target named is Human TLR4 (Homo sapiens, UniProt O00206). As to the kind of experiment: Human PBMC cell-based assay, LPS stimulation, IL-6. Also noted: endogenous in cells; host or cells: primary human PBMC from healthy donors. The following applies: Hu PBMC; ligand LPS. On the procedure: (§1) Human peripheral blood mononuclear cells (PBMC) were isolated from freshly-drawn heparinized (10 USP units/ml, Hospira, Lakeforest, Ill.) healthy donor whole blood by density gradient (Histopaque® 1077, Sigma, Inc., St. Louis, Mo.). Briefly, 25 ml blood was diluted with 15 ml PBS (without Ca^2+, Mg^2+) in a 50 ml conical tube, and 12 ml Histopaque was underlaid using a spinal needle. Tubes were centrifuged for 45 minutes at 1200 rpm (350×g), and PBMC were collected from the buffy coat. Cells were then washed twice in PBS, and red blood cells were lysed by suspension in 5 ml ammonium chloride solution (1× Red Blood Cell Lysis Buffer, eBioscience) for 5 minutes at room temperature. […]
Human TLR4, sequence (O00206 24-839): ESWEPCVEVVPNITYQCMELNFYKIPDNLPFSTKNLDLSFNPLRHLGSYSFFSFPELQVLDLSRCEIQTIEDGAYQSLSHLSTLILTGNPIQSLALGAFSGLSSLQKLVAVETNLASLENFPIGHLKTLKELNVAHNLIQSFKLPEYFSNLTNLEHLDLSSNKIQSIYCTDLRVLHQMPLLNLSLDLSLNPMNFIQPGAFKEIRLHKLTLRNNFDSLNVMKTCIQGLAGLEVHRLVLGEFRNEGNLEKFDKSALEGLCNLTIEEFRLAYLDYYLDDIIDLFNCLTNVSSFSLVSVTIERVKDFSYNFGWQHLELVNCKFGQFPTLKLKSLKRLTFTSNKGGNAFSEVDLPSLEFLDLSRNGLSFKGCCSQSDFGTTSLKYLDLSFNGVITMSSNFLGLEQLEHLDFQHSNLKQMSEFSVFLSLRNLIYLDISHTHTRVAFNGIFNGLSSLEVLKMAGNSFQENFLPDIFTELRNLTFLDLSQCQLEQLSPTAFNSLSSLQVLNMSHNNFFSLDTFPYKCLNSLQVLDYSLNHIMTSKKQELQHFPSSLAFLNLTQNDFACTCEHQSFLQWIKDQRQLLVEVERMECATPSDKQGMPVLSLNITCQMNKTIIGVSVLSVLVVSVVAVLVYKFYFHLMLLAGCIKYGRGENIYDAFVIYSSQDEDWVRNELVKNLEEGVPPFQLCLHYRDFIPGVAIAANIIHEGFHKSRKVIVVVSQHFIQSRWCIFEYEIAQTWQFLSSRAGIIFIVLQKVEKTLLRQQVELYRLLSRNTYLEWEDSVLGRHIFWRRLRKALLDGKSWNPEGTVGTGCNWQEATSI
Human TLR4, sequence (Q9Y6Y9 19-160 partner): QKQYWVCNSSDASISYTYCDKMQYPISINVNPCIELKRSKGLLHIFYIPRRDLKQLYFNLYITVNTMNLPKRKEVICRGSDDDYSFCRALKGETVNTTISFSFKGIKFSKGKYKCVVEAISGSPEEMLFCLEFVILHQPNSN
(§2) Antagonist compounds solubilized and serial diluted in 100% DMSO were added in triplicate to cells to yield a final concentration of 0.1% DMSO (v/v). […] Cell culture supernatants were collected, and levels of various human cytokines were assessed as indicated by standard ELISA procedure according to the manufacturer's recommended protocol (BD Biosciences, Inc., San Diego, Calif.).

Test [4] addresses T2, Human TLR9 (Homo sapiens, UniProt Q9NR96).
T2 sequence (Q9NR96 26-1032): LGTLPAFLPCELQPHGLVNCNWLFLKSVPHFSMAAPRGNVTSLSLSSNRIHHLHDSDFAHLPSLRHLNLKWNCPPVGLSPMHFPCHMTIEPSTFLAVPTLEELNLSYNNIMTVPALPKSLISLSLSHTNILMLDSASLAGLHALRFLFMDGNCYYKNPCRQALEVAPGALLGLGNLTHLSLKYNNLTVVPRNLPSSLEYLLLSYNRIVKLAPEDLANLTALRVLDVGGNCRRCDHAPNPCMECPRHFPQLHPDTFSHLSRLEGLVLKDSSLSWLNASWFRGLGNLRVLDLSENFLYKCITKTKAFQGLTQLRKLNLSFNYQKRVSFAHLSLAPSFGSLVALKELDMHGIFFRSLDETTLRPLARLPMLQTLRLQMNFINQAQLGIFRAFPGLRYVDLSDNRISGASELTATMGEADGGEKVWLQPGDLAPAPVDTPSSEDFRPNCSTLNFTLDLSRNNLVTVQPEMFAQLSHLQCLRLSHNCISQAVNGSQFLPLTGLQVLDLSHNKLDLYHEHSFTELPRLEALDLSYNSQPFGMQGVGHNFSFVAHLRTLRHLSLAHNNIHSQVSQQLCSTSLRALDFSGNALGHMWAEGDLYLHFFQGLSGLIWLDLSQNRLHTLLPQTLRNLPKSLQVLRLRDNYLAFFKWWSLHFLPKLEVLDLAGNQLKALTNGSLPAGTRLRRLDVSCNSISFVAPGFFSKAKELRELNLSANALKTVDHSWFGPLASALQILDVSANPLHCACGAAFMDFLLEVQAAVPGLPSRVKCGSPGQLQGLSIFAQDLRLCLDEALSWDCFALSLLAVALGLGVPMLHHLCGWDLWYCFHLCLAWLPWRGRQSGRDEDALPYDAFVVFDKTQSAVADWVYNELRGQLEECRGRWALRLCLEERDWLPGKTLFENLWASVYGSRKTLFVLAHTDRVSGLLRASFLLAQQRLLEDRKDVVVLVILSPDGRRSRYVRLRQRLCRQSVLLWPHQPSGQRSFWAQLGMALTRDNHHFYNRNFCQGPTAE
As to the kind of experiment: Human PBMC cell-based assay, CpG-ODN stimulation, IL-6. More on the design: endogenous in cells; host or cells: primary human PBMC from healthy donors. As to conditions: Hu PBMC; ligand CpG-ODN. On the procedure:
as §1, §2

The mark [5] stands for this setting: 13 hr after oral dose, 100 mg/kg.
[6] abbreviates: 13 hr after oral dose, 33 mg/kg.
Where [7] appears, read: 13 hr after oral dose, 300 mg/kg.
Where [8] appears, read: 24 hr after oral dose, 100 mg/kg.
The mark [9] stands for this setting: 24 hr after oral dose, 300 mg/kg.

Each structure is given as a SMILES string. pIC50: −log10 of the molar value.

As a reminder, the pIC50 is the IC50 on a negative log10 scale, so that one unit is a factor of ten. For the compound `CC1CC(NC2COC2)CN(c2ccc(C#N)c3ncccc23)C1` (centres unmarked) [ER-899541], the “% Suppression vs. Vehicle” value in test [1] (6 h after oral dose, 100 mg/kg) came to 97%; in test [1] (setting [5]) it was 92%. Besides, in test [2], the pIC50 is 7.82.

As for `CNCC(=O)NC1CC(C)CN(c2ccc(C#N)c3ncccc23)C1` (centres unmarked) [ER-897608], the “% Suppression vs. Vehicle” value in test [1] (6 h after oral dose, 33 mg/kg) is recorded as 98%; in test [1] (setting [6]), 56%; in test [1] (setting [5]), 84%; in test [1] (setting [7]), 98%; in test [1] (24 hr after oral dose, 33 mg/kg), 35%; in test [1] (setting [8]) it was 22%. The “% Suppression vs. Vehicle” value in test [1] (setting [9]) is recorded as 95%. Moreover, the pIC50 in test [2] is 8.30.

With `CCN(CCO)CCCC(C)Nc1ccnc2cc(Cl)ccc12` (centres unmarked) [HCQ, Hydroxychloroquine], the pIC50 in test [3] was under 5.00; in test [4], 6.52 to 6.82.

Regarding `CC1CC(NC(=O)C2(C)COC2)CN(c2ccc(C#N)c3ncccc23)C1` (centres unmarked) [ER-899072], the “% Suppression vs. Vehicle” value in test [1] (6 h after oral dose, 100 mg/kg) is on record as 94%; in test [1] (setting [6]), 34%; in test [1] (setting [5]) it was 72%; in test [1] (setting [7]), 100%; in test [1] (setting [8]) it was 0%; in test [1] (setting [9]), 78%. The pIC50 in test [2] was 8.10.

As to `C[C@H]1C[C@@H](NS(=O)(=O)CCCN(C)C)CN(c2ccc(C#N)c3ncccc23)C1` [ER-899672], the “% Suppression vs. Vehicle” value in test [1] (6 h after oral dose, 100 mg/kg) was 89%; in test [1] (setting [5]) it was 83%. The pIC50 in test [2] is 8.52.

`CC1CC(NC2CCOC2)CN(c2ccc(C#N)c3ncccc23)C1` (centres unmarked) [ER-899544]: the “% Suppression vs. Vehicle” value in test [1] (6 h after oral dose, 100 mg/kg) is 97%; in test [1] (setting [5]), 94%. In addition, in test [2], the pIC50 was 8.30.
